Key:
[1] = tested on: spontaneous erections in male rats; assay: Test of sexual behavior in rats (spontaneous erections) after oral administration; type: in vivo, rat; conditions: 10 mg/kg oral, observed for 1 hour in presence of females, significantly increased compared to vehicle, average±SEM, FIG. 3
Experimental: The utilized protocol was adapted from literature articles (Hosseinzadeh et al., 2008; Rizzo et al., 2008). Two days before execution of experiments, couples of males and females were isolated in plastic boxes. In this period, males were housed for 1 hour per day in reinforced metal cages, rectangular with dimensions of 40×23×33 cm. On the day of the test, the male rats were treated with 10 mg/kg (oral) of compound BL-122 or only with vehicle (saline containing 10% of DMSO). Immediately afterwards, animals were placed in observation cages. The rats that received treatment by oral route were fasted for 4 hours before the test. One and a half (1.5) hours after the oral treatment, the females were placed with the respective males in the cages.

[2] = tested on: isolated cavernous body of rabbit; assay: Relaxing effect on isolated cavernous body of rabbit pre-contracted with phenylephrine; type: cell-based; conditions: cumulative concentrations 1 to 1000 nM
Experimental: Experiments used male rabbits weighing between 3.5 and 4.0 Kg. The animals were anesthetized with sodium pentobarbital (40 mg/kg, i.p), and the abdominal cavity opened for the withdrawal of the penis from the animals. The tissues were placed in a Petri dish containing Krebs-Henseleit solution pH 7.4 (NaCl 118 mM; KCl 4.8 mM; CaCl2 2.5 mM; MgSO4 1.2 mM; KH2PO4 0.9 mM; NaHCO3 25 mM; glucose 11 mM) warmed to 37° C., and cartilage and adherent tissue were carefully removed. In general 3 segments containing approximately 2 cm of length of cavernous body were obtained from each animal. The preparations were mounted on glass reservoirs containing 5 ml of Krebs solution containing indomethacin (5.6 μM) at 37° C., continuously aerated with a mixture of 95% of O2 and 5% of CO2.
The preparations were submitted to a period of equilibrium of at least 90 minutes, under tension of 2 g, during which the bath solution was renewed each 15 minutes. Changes of isometric tension were registered using a TRI-201 force transducer (Letica Scientific Instruments, Spain) connected a polygraph.
After the period of stabilization, the preparations were treated with single concentrations of […] of phenylephrine. […]
The relaxation responses caused by the compounds were calculated in relation to the contractile response of phenylephrine, which is considered as 100% of contraction. […]

isolated aorta of rat = assay: Relaxing effect on isolated rat aorta rings pre-contracted with phenylephrine; type: cell-based; conditions: rat aorta with endothelium previously treated with phenylephrine; cumulative concentrations 1 to 1000 nM; FIG. 2
Experimental: Experiments used male Wistar rats weighing between 300-350 g. The animals were maintained in an environment with humidity (60-80%) and controlled temperature (22±2° C.), with light-dark cycles of 12 hours and free access to water and rations. Before experiments, the animals were acclimatized in the laboratory for a minimum period of 1 hour. Each animal was used only one time in each test.
The animals were sacrificed by deepening anesthesia with ketamine and xylazine hydrochloride, followed by exsanguination made by section of the carotid artery. After opening of the thoracic cavity, the aorta was carefully removed and transferred to a Petri dish containing Krebs-Henseleit solution, with the following composition (mM): NaCI-118; KCl 4.7; CaCl2 2.5; MgSO4 1.2; KH2PO4 0.9; NaHCO3 25; glucose 11. Afterwards, adipose and adjacent connective tissues were carefully removed. […]
After a period of equilibrium of 60 minutes, the preparations were treated with phenylephrine (0.3-1 μM), and after stabilization of the tonic contraction of the preparation, the integrity of the vascular endothelium was evaluated by the capacity of acetylcholine (ACh, 1 μM) to induce relaxation in the preparations. […]

EC50 ([2]; Oryctolagus cuniculus, cavernous body of rabbit previously contracted with phenylephrine, value with interval in brackets): 0.0159 µM
Compound: CN1CC(=O)N[C@H](Cc2c(C(=O)c3ccc4c(c3)OCO4)[nH]c3ccccc23)C1=O [Compound BL-122, (R)-3-((2-(benzo[d][1,3]dioxol-5-carbonyl)-1H-indol-3-yl)methyl)-1-methylpiperazine-2,5-dione]
spontaneous erections [1]: about 6.4±2.0
maximum relaxation (efficacy) ([2]; cavernous body of rabbit previously contracted with phenylephrine (contraction = 100%), average±SEM): 63.1±7.8%
relaxation of rat aorta preparations (isolated aorta of rat): promoted relaxation

Reference: patent US8268831B2, “Compounds derived from 2-(3-methylenedioxy)-benzoyl indol” (Biolab Sanus Farmaceutica Ltda., priority 2008, dated 2012)
